“Also recorded” adds a separate entry of the source.
Key:
[1] = test system: A. baumannii biofilm; assay: CLSM, co-culture of bacteria with compound (inhibition of biofilm formation); type: cell-based, Acinetobacter baumannii; conditions: for killing of residential bacteria, co-culture (CLSM, in words): 10 μM; for Co-culture of bacteria with compound: Killing: CLSM, 10 μM compound, 18 hrs, Y / —
Method: (§1) Broad spectrum agents (effective against all three bacterial species) and single agent compounds identified as HTS hits were investigated with CLSM confirmation of inhibition of biofilm formation (culture of bacteria with compounds) or killing of bacteria residing within an established biofilm (compound addition after culturing biofilm). To evaluate inhibition of P. aeruginosa biofilms, bacteria were sub-cultured into 10% L-broth and grown at 37° C. until the OD600 reached 0.25. The bacteria were further diluted 1:100 into a modified 0.5×M63 minimum media (50 mM KH2PO4, 7.5 mM (NH4)2SO4, 9 μM FeSO4, 0.5% casamino acids, 0.2% glucose, and 1 mM MgSO4). A. baumannii biofilms were also grown in 10% L-broth until the OD600 reached 0.05 but diluted 1:10 into 5% L-broth media. S. epidermidis biofilm cultures were grown. Briefly, the bacteria were grown in TSB until the OD600 reached 0.75, and a 1:100 dilution of the bacteria was sub-cultured into phosphate buffered saline (PBS). All of the biofilm bacterial cultures were grown in 96-well plate chambers (MatTek Corp., Ashland, Mass.) in the presence of 10 μM of each compound or DMSO as a control and incubated for 18 hrs at 37° C. To investigate the ability of compounds to kill bacteria within pre-existing biofilms, biofilms were grown under the same conditions, but without test compound. These biofilms were washed once with PBS and incubated an additional 24 hr at 37° C. in PBS containing 300 μM of each compound. All biofilm cultures were then washed twice with 100 μL of PBS and stained using the LIVE/DEAD® BacLight™ Bacterial Viability Kit (Invitrogen). Finally, biofilm images were obtained using a Zeiss LSM510 META Confocal Microscope (Carl Zeiss, Inc., Germany). A 488 nm laser was used in conjunction with a Plan-Apochromat 100×/1.4 Oil DIC objective. Z-stacks were 8 bit and measured 127.3 μm×127.3 μm×16.0 μm in size. The filters used were 505-530 and 620-680 IR, as the excitation and emission wavelengths for red fluorescence are 490 nm and 635 nm, respectively, and 480 nm and 500 nm for green fluorescence. Three dimensional images were generated using the “Projection” ability on LSM Image Browser software (v.1.4.0.121) or Zeiss LSM image browser software version 3.5 (Carl Zeiss, Inc., Germany), and Live/Dead calculations were conducted based upon these images using MacBiophotonics ImageJ following the guidelines in the cell counting guide by C. Labno {Rasband, 1997-2011 #25; Labno, #2} at the University of Chicago Integrated Light Microscopy Core. The thickness of the biofilm was calculated using Comstat software. A hit was defined as a >50% dead to live ratio.
(§2) The CLSM experiment was performed in one or two or all bacteria used in this study depending on its activity. For the validation of HTS hits, 10 μM of compound was added to each bacterial suspension and the resulting biofilm stained with LIVE/DEAD® BacLight™ Bacterial Viability Kit. The images were analyzed to determine the live and dead ratios of biofilm bacteria, the thickness of biofilms, and structural attributes of biofilms.

[2] = test system: A. baumannii established biofilm; assay: CLSM, effect of compound on the pre-existing biofilm; type: cell-based, Acinetobacter baumannii; conditions: 24 hr; for killing of established A. baumannii biofilm (CLSM, in words): 300 μM; for Effect of compound on the pre-existing biofilm: Killing: Y / —
Method: as §1, §2

[3] = test system: A. baumannii; assay: HTS total bacterial growth assay (optical density OD560); type: cell-based, Acinetobacter baumannii; conditions: 10 point dose-response 0.1-50 μM, NS* = no sigmoid curve observed; for AC50: Acinetobacter baumannii, read-out: Total Bacteria Growth AC50
Source text: (§3) Each HTS tier consisted of: (i) primary screening, (ii) confirmation screening and (iii) dose-response curve screening. Each tier of HTS included three distinct biological process assays. The first assay was an optical density measurement of bacteria growth in the presence of each compound reported as a total bacteria growth. In the second assay, resazurin solution was used as an indicator of metabolic activity to measure the live bacteria in the biofilms, reported as live biofilm. The final assay was crystal violet staining, which indicated the amount of biofilm formation and the effect of each compound on this process, reported as total biofilm formation.
(§4) Briefly, stationary phase bacteria grown in L-broth were diluted 1:200 into fresh L-broth and 50 μM of each test compound. After 20-24 hours, the optical density (OD560) of each suspension was measured using Zeiss Plate::Vision with a 560 BP filter (560 nm, 2.5% light intensity, 1 mm focus to bottom of plate, and exposure time of 100 ms). To measure bacterial viability in the biofilm, 50 μl of a 5 mg/ml resazurin solution in L-broth was added to each well after washing 3 times with 50 μl of PBS. The plates were then incubated at 37° C. for 30 or 180 min for A. baumannii and P. aeruginosa biofilms, respectively. Fluorescence was measured using Zeiss Plate::Vision at excitation and emission wavelengths of 535 and 580 nm, 100 ms exposure time, 2.5% intensity and a 2 mm focus to the bottom of the biofilms. To assess biofilm formation, plates were washed 3 times with PBS and then 50 μl of 0.01% of crystal violet was added to each well to assess bacterial biofilm formation as described in a similar borosilicate tube assay by O'Toole and Kolter. After incubation at room temperature for 30 min and removal of the crystal violet solution by washing with PBS, 95% ethanol was added to solubilize the crystal violet followed by incubation for 20 min at room temperature. Finally, the optical density of each plate was determined using measured by Zeiss Plate::Vision using the same settings used to measure total bacterial growth. These 3 steps were used in each of the three tiers for the HTS process: (i) single point primary screening at 10 μM, (ii) triplicate confirmation of hits from (i) at 10 μM and (iii) determination of AC50 values in 10 point dose-response at a concentration range of 0.1-50 μM) in hits from (ii). The AC50 represents the concentration of compound that inhibits 50% of bacterial growth, bacterial viability, or biofilm formation. Genedata Screener® Assay Analyzer Software (Ver. 9.0.0 Standard) was used to analyze data from all assay tiers. Compounds with an AC50 of less than 20 μM in one of the biological assays from the dose response screen were subject to additional investigation.

[4] = test system: A. baumannii biofilm; assay: HTS total biofilm formation assay (crystal violet staining); type: cell-based, Acinetobacter baumannii; conditions: Acinetobacter baumannii, 10 point dose-response 0.1-50 μM
Source text: as §3, §4

[5] = test system: A. baumannii biofilm; assay: HTS live biofilm assay (resazurin metabolic activity); type: cell-based, Acinetobacter baumannii; conditions: Acinetobacter baumannii, 10 point dose-response 0.1-50 μM
Source text: as §3, §4

[6] = test system: P. aeruginosa biofilm; assay: CLSM, co-culture of bacteria with compound (inhibition of biofilm formation); type: cell-based, Pseudomonas aeruginosa
Method: as §1, §2

[7] = test system: P. aeruginosa biofilm; assay: HTS total biofilm formation assay (crystal violet staining); type: cell-based, Pseudomonas aeruginosa; conditions: Pseudomonas aeruginosa, 10 point dose-response 0.1-50 μM
Source text: as §3, §4

[8] = test system: P. aeruginosa biofilm; assay: HTS live biofilm assay (resazurin metabolic activity); type: cell-based; conditions: Pseudomonas aeruginosa, 10 point dose-response 0.1-50 μM
Source text: as §3, §4

[9] = test system: P. aeruginosa; assay: HTS total bacterial growth assay (optical density OD560); type: cell-based, Pseudomonas aeruginosa; conditions: Pseudomonas aeruginosa, 10 point dose-response 0.1-50 μM, read-out: Total Bacteria Growth AC50
Source text: as §3, §4

Compound | killing of established A. baumannii biofilm (CLSM, in words) [2] | AC50 [3] [µM] | AC50 [4] [µM] | AC50 [5] [µM] | Total Bacteria Growth AC50 [3] | Effect of compound on the pre-existing biofilm: Killing ([2]; CLSM, 300 μM compound) | also measured
C=CCSC1=NC(C)(C)CC2(CC(c3ccccc3)c3ccc(O)c(O)c3O2)N1 (stereo not drawn) [Compound 34, 3,4,5′,6′-tetrahydro-6′,6′-dimethyl-4-phenyl-2′-(2-propen-1-ylthio)-spiro[2H-1-benzopyran-2,4′(3′H)-pyrimidine]-7,8-diol] | effective against biofilm resident A. baumannii |  |  |  |  |  | killing of residential bacteria, co-culture (CLSM, in words) [1]: effective in killing the bacterium
O=C(N/N=C/c1ccc(O)cc1O)c1cc(-c2ccccc2)nc2ccccc12 [Compound 33, N′-(2,4-dihydroxybenzylidene)-2-phenylquinoline-4-carbohydrazide] |  | > 200 | 17.2 | 7.28 |  |  | 
CCCCOC(=O)C(=O)CC(=O)/C=C/c1ccccc1 [Compound 30, Butyl (E)-2,4-dioxo-6-phenylhex-5-enoate] |  |  | 8.54 | 2.35 | NS* |  | 
O/N=C1/C=Cc2[nH]c(-c3ccccc3)cc2/C1=N/O [Compound 18, N-(4-nitroso-2-phenyl-1H-indol-5-yl)hydroxylamine] | demonstrated killing of established biofilm culture; also recorded: effective against biofilm resident A. baumannii | 17.7 | 14.6 | 4.53 |  | Y (A hit was defined as a >50% dead to live ratio) | killing of residential bacteria, co-culture (CLSM, in words) [1]: effective in killing the bacterium; Co-culture of bacteria with compound: Killing [1]: Y (A hit was defined as a >50% dead to live ratio)
Oc1c(Cl)cc(Cl)c(Cl)c1-c1nc2ccccc2[nH]1 [Compound 29, 2-(1H-benzoimidazol-2-YL)-3,4,6 Trichlrophenol] |  |  | 8.37 | > 200 | NS* |  | 
O=C(N/N=C/c1cc(Br)c(O)cc1O)c1cc2c(ccc3ccccc32)o1 [Compound 23, N′-[(E)-(5-Bromo-2,4-dihydroxyphenyl)methylene]naphtho[2,1-b]furan-2-carbohydrazide] |  | > 200 | 17.5 | 8.97 |  |  | 
O=C(O)c1cn(-c2ccc(F)cc2F)c2nc(N3CCC(O)CC3)c(F)cc2c1=O [Compound 14, 1-(2,4-difluorophenyl)-6-fluoro-1,4-dihydro-4-oxo-7-(4-hydroxy-1-piperidinyl)-1,8-Naphthyridine-3-carboxylic acid] |  |  |  |  |  |  | killing of residential bacteria, co-culture (CLSM, in words) ([6]; 10 μM): lethal to residential bacteria; Co-culture of bacteria with compound: Killing ([6]; CLSM, 10 μM compound, 18 hrs, Y / —): Y (A hit was defined as a >50% dead to live ratio); AC50 [7]: 13 µM; AC50 [8]: 80.1 µM; AC50 [9]: 13.6 µM
Oc1c(I)cc(I)cc1/C=N/c1ccc2[nH]c(-c3ccccc3)nc2c1 [Compound 31] | demonstrated killing of established biofilm culture; also recorded: demonstrated ability in killing; also recorded: effective against biofilm resident A. baumannii | > 200 | 23.5 | 17.4 |  | Y (A hit was defined as a >50% dead to live ratio) | killing of residential bacteria, co-culture (CLSM, in words) [1]: effective in killing the bacterium; Co-culture of bacteria with compound: Killing [1]: Y (A hit was defined as a >50% dead to live ratio); Effect of compound on the pre-existing biofilm: Dispersion ([2]; CLSM, 300 μM compound): did demonstrate dispersion activity
N-2-(4-methoxybenzothiazolyl)-2,3-dihydro-4-Methyl-5-oxo-1H,5HBenzo[ij]quinolizine-6-carboxamide [Compound 28] | effective against biofilm resident A. baumannii |  |  |  |  |  | 
CCCCC(C(=O)N/N=C/c1cc(Br)ccc1O)C(=O)N/N=C/c1cc(Br)ccc1O [Compound 25, N′1,N′3-Bis [(E)-(5-bromo-2-hydroxyphenyl)methylene]-2-butylmalonohydrazide] |  | > 200 | 5.11 | 1.26 |  |  | 
Nc1nonc1-c1nc2ccccc2n1CC(=O)N/N=C/c1cc(Br)cc(Br)c1O [Compound 21, 2-[2-(4-amino-1,2,5-oxadiazol-3-yl)-1H-benzimidazol-1-yl]-N′-[(E)-(3,5-dibromo-2-hydroxyphenyl)methylidene]acetohydrazide] |  |  | 14.6 | 9.86 | NS* |  | 
Oc1ccc2c(c1O)O[C@@]13NC(=S)N[C@@H](c4ccccc4)[C@H]1CCC[C@H]3[C@H]2c1ccccc1 (relative stereo) [Compound 24, (4R,4aR,7aS,8S,13aR)-rel-3,4,4a,5,6,7,7a,8-octahydro-11,12-dihydroxy-4,8-diphenyl-[1]Benzopyrano[3,2-i]quinazoline-2(1H)-thione] | demonstrated killing of established biofilm culture; also recorded: effective against biofilm resident A. baumannii | > 200 | 3.75 | 1.13 |  | Y (A hit was defined as a >50% dead to live ratio) | 
Cc1n[nH]c(O)c1C(c1cccc(OCc2ccc(Cl)c(Cl)c2)c1)c1c(C)n[nH]c1O [Compound 26, 4-[{3-[(3,4-dichlorobenzyl)oxy]phenyl}(5-hydroxy-3-methyl-1H-pyrazol-4-yl)methyl]-3-methyl-1H-pyrazol-5-ol] | demonstrated killing of established biofilm culture; also recorded: effective against biofilm resident A. baumannii |  | 7.6 | 8.07 | NS* | Y (A hit was defined as a >50% dead to live ratio) | 
